The NIST ThermoML archive (doi:10.1016/j.jct.2015.09.005)
Numbers after ± are expanded uncertainties.

Details: Liquid, Gas chromatography

vapor or sublimation pressure (298.15 K) [kPa] | vapor or sublimation pressure (308.15 K) [kPa] | vapor or sublimation pressure (318.15 K) [kPa] | vapor or sublimation pressure (328.15 K) [kPa] | vapor or sublimation pressure (338.15 K) [kPa] | vapor or sublimation pressure (348.15 K) [kPa] | vapor or sublimation pressure (350 K) [kPa] | Structure (SMILES)
0.0012 ± 0.0001 | 0.0029 ± 0.0003 | 0.0066 ± 0.0007 | 0.014 ± 0.002 | 0.029 ± 0.003 | 0.056 ± 0.006 | 0.064 ± 0.006 | CC1=COC(=O)[C@@H]2[C@@H]1CC[C@@H]2C
0.00092 ± 9e-05 | 0.0022 ± 0.0002 | 0.005 ± 0.0005 | 0.011 ± 0.001 | 0.022 ± 0.002 | 0.045 ± 0.005 | 0.05 ± 0.005 | CC1=COC(=O)[C@H]2[C@@H]1CC[C@@H]2C
